Patent US7214699B2, “Indazole derivatives as CRF antagonists” (Roche Palo Alto LLC, priority 2002, dated 2007)
Structures can show the parent of a compound that is named as a salt.

What was measured:
hCRF1 = biological target: T1, hCRF1 (Homo sapiens, UniProt P34998); test: Intracellular cAMP stimulation assay (CRF1 functional assay); format: cell-based; conditions: inhibition of hCRF (30 nM)-stimulated cAMP accumulation in human Y-79 retinoblastoma cells, read-out: hCRF1 pIC50 (converted)
T1 construct: endogenous in cells; host or cells: Human Y-79 retinoblastoma cells
T1 sequence (P34998 24-415): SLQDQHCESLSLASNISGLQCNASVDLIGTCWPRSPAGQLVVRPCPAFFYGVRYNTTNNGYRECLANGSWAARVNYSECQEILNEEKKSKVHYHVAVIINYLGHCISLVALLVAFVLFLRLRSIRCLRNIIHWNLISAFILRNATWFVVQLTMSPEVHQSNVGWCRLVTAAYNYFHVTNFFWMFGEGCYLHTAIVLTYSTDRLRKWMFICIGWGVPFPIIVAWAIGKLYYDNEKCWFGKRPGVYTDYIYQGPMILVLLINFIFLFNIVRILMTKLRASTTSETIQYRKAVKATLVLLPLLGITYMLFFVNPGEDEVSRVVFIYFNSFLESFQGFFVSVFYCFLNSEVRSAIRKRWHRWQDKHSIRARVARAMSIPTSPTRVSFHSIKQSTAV
Experimental: Intracellular cAMP Stimulation Assay
Human Y-79 retinoblastoma cells are grown in RPMI 1640 medium with 15% FBS. Measures of cAMP accumulation are performed by using NEN Adenylyl Cyclase FlashPlate kit (SMP004). The cells are separated from culture medium, washed twice with PBS (150×g, 8 min), resuspended (2E+6 cells/ml) in Stimulation Buffer (provided in the kit), and then added to 96-well FlashPlates, (50,000 cells per well). Various concentrations of test compounds are incubated with the cells for 20 min prior to the addition of hCRF (30 nM). The total assay volume is 100 μl. The assay is terminated after 20 min after addition of the hCRF by addition of Detection Buffer and [^125I]cAMP. After 2 hr at room temperature the mixtures are aspirated and the bound radioactivity is measured with a Packard TopCount. The potency (IC50 values) of test compounds in inhibiting the hCRF-stimulated accumulation of cAMP is determined by nonlinear regression analyses with interactive curve-fitting procedures.
The compounds of the present invention were active in receptor binding and functional assays.

Work on `CCN(CCOC)c1c2cccc(-c3c(C)cc(C)cc3C)c2nn1C.Cl` yielded a melting point of 142 to 146 °C.
With `CCCN(CCC)c1c2cccc(-c3ccc(OC)cc3C)c2nn1C.Cl` the melting point was 60 to 70 °C.
Work on `CCCN(Cc1c2cccc(-c3c(C)cc(C)cc3C)c2nn1C)CC1CC1.Cl` yielded a melting point of 125.8 to 133.5 °C.
For `CCCN(CC1CC1)c1c2cccc(-c3ccc(Cl)cc3Cl)c2nn1C.Cl`, the melting point was 137 to 139 °C.
In the case of `CCCN(CCC)c1c2cccc(-c3ccc(OC)cc3OC)c2nn1C.Cl`, the melting point was 62 to 64.3 °C.
`CC/C=C(\CCC)c1c2cccc(-c3ccc(OC)nc3C)c2nn1C.Cl` gave a melting point of 84.7 to 89.4 °C.
`CCC=C(CCC)c1c2cccc(-c3ccc(Cl)cc3Cl)c2nn1C` (as salt: hydrochloride) [Ia, 7-(2,4-Dichloro-phenyl)-2-methyl-3-(1-propyl-but-1-enyl)-2H-indazole hydrochloride] showed a melting point of 147 to 152 °C.
For `CCCN(CCC)c1c2cccc(-c3c(C)cc(C)cc3C)c2nn1C` (as salt: hydrochloride) [Ic, [2-Methyl-7-(2,4,6-trimethyl-phenyl)-2H-indazol-3-yl]-dipropyl-amine], the melting point was 154 to 158 °C.
`CCCN(CCOC)c1c2cccc(-c3c(C)cc(C)cc3C)c2nn1C` (as salt: hydrochloride) [Ie, (2-Methoxy-ethyl)-[2-methyl-7-(2,4,6-trimethyl-phenyl)-2H-indazol-3-yl]-propyl-amine] showed a melting point of 86 to 121 °C.
In the case of `COCCN(CCOC)c1c2cccc(-c3c(C)cc(C)cc3C)c2nn1C` (as salt: hydrochloride) [If, Bis-(2-methoxy-ethyl)-[2-methyl-7-(2,4,6-trimethyl-phenyl)-2H-indazol-3-yl]-amine], the melting point was 140 to 142 °C.
In the case of `CCCN(CCC)c1c2cccc(-c3ccc(Cl)cc3Cl)c2nn1C` (as salt: hydrochloride) [[7-(2,4-Dichloro-phenyl)-2-methyl-2H-indazol-3-yl]-dipropyl-amine], the melting point was 153 to 157 °C.
In the case of `CCC=C(CCC)c1c2cccc(-c3ccc(Cl)cc3Cl)c2nn1C` [Ia, 7-(2,4-Dichloro-phenyl)-2-methyl-3-(1-propyl-but-1-enyl)-2H-indazole hydrochloride], the IC50 (hCRF1) was 63.1 nM.
`Cn1nc2c(-c3ccc(Cl)cc3Cl)cccc2c1C(=O)N1CCOCC1` [Iae, [7-(2,4-Dichloro-phenyl)-2-methyl-2H-indazol-3-yl]-morpholin-4-yl-methanone] gave a melting point of 197 to 200.8 °C.
`Cn1nc2c(-c3ccc(Cl)cc3Cl)cccc2c1CN1CCOCC1` [Iag, 7-(2,4-Dichloro-phenyl)-2-methyl-3-morpholin-4-ylmethyl-2H-indazole] showed a melting point of 152.3 to 154.8 °C.
Work on `CCC=C(CCC)c1c2cccc(-c3c(C)cc(C)cc3C)c2nn1C.Cl` [Ib, 2-Methyl-3-(1-propyl-but-1-enyl)-7-(2,4,6-trimethyl-phenyl)-2H-indazole hydrochloride] yielded an IC50 (hCRF1) of 50.1 nM and a melting point of 132 to 135 °C.
In the case of `CCCN(CCC)c1c2cccc(-c3c(C)cc(C)cc3C)c2nn1C` [Ic, [2-Methyl-7-(2,4,6-trimethyl-phenyl)-2H-indazol-3-yl]-dipropyl-amine], the IC50 (hCRF1) was 79.4 nM.
`CCCN(CC1CC1)C(=O)c1c2cccc(-c3c(C)cc(C)cc3C)c2nn1C` [Im, 2-Methyl-7-(2,4,6-trimethyl-phenyl)-2H-indazole-3-carboxylic acid cyclopropylmethyl-propyl-amide] showed a melting point of 112.5 to 113.8 °C.
In the case of `CCCN(Cc1cccs1)c1c2cccc(-c3c(C)cc(C)cc3C)c2nn1C` [Io, [2-Methyl-7-(2,4,6-trimethyl-phenyl)-2H-indazol-3-yl]-propyl-thiophen-2-ylmethyl-amine trifluoro-acetic acid salt], the IC50 (hCRF1) was 79.4 nM.
`CCCN(CC1CC1)c1c2cccc(-c3c(C)cc(C)cc3C)c2nn1C` [Ip, Cyclopropylmethyl-[2-methyl-7-(2,4,6-trimethyl-phenyl)-2H-indazol-3-yl]-propyl-amine trifluoroacetic acid salt] gave an IC50 (hCRF1) of 50.1 nM.
